Measured values from the NIST ThermoML archive (doi:10.1016/j.jct.2016.07.005).

Experiment: xn = mol fraction of the nth substance listed
Settings: 100 kPa, Liquid; for viscosity: Concentric cylinders viscometry; for mass density: Vibrating tube method

CN1CCC[C@H]1c1cccnc1 [(-)-3-(N-methylpyrrolidino)pyridine] + CCC(C)O
Settings	mass density [kg/m3]	viscosity [mPa·s]
293.15 K, x1 = 0.1	841.874	3.496
293.15 K, x1 = 0.2036	873.003	3.46
293.15 K, x1 = 0.3	898.284	3.593
293.15 K, x1 = 0.4	921.306	3.845
293.15 K, x1 = 0.5	941.501	4.157
293.15 K, x1 = 0.6	959.218	4.476
293.15 K, x1 = 0.6956	974.099	4.734
293.15 K, x1 = 0.8	988.293	4.907
293.15 K, x1 = 0.9	1000.07	4.909
293.15 K, x1 = 1	1010.23	4.694
298.15 K, x1 = 0.1	837.728	2.96
298.15 K, x1 = 0.2036	868.857	2.981
298.15 K, x1 = 0.3	894.137	3.11
298.15 K, x1 = 0.4	917.159	3.319
298.15 K, x1 = 0.5	937.354	3.566
298.15 K, x1 = 0.6	955.075	3.813
298.15 K, x1 = 0.6956	969.963	4.015
298.15 K, x1 = 0.8	984.171	4.158
298.15 K, x1 = 0.9	995.971	4.179
298.15 K, x1 = 1	1006.16	4.048
303.15 K, x1 = 0.1	833.532	2.521
303.15 K, x1 = 0.2036	864.676	2.579
303.15 K, x1 = 0.3	889.965	2.704
303.15 K, x1 = 0.4	912.993	2.881
303.15 K, x1 = 0.5	933.194	3.08
303.15 K, x1 = 0.6	950.921	3.277
303.15 K, x1 = 0.6956	965.82	3.439
303.15 K, x1 = 0.8	980.047	3.558
303.15 K, x1 = 0.9	991.873	3.591
303.15 K, x1 = 1	1002.1	3.518
308.15 K, x1 = 0.1	829.273	2.162
308.15 K, x1 = 0.2036	860.452	2.244
308.15 K, x1 = 0.3	885.762	2.367
308.15 K, x1 = 0.4	908.808	2.523
308.15 K, x1 = 0.5	929.021	2.691
308.15 K, x1 = 0.6	946.761	2.853
308.15 K, x1 = 0.6956	961.675	2.987
308.15 K, x1 = 0.8	975.925	3.09
308.15 K, x1 = 0.9	987.783	3.128
308.15 K, x1 = 1	998.055	3.088
313.15 K, x1 = 0.1	824.949	1.875
313.15 K, x1 = 0.2036	856.182	1.975
313.15 K, x1 = 0.3	881.53	2.094
313.15 K, x1 = 0.4	904.598	2.232
313.15 K, x1 = 0.5	924.831	2.373
313.15 K, x1 = 0.6	942.588	2.508
313.15 K, x1 = 0.6956	957.521	2.62
313.15 K, x1 = 0.8	971.798	2.713
313.15 K, x1 = 0.9	983.692	2.761
313.15 K, x1 = 1	994.014	2.758
318.15 K, x1 = 0.1	820.559	1.627
318.15 K, x1 = 0.2036	851.865	1.734
318.15 K, x1 = 0.3	877.259	1.848
318.15 K, x1 = 0.4	900.359	1.974
318.15 K, x1 = 0.5	920.616	2.099
318.15 K, x1 = 0.6	938.394	2.214
318.15 K, x1 = 0.6956	953.35	2.308
318.15 K, x1 = 0.8	967.662	2.383
318.15 K, x1 = 0.9	979.601	2.419
318.15 K, x1 = 1	989.984	2.411
323.15 K, x1 = 0.1	816.09	1.434
323.15 K, x1 = 0.2036	847.491	1.55
323.15 K, x1 = 0.3	872.943	1.662
323.15 K, x1 = 0.4	896.089	1.778
323.15 K, x1 = 0.5	916.374	1.888
323.15 K, x1 = 0.6	934.178	1.989
323.15 K, x1 = 0.6956	949.16	2.071
323.15 K, x1 = 0.8	963.511	2.141
323.15 K, x1 = 0.9	975.504	2.183
323.15 K, x1 = 1	985.962	2.195
